Measured values reported in ChEMBL document CHEMBL1126844, “Hydroxylated 2-(5'-salicyl)naphthalenes as protein-tyrosine kinase inhibitors” (J Med Chem, 1993).

What follows are compounds tested against Tyrosine-protein kinase Lck (Homo sapiens, UniProt P06239) (assay: Inhibition of protein-tyrosine kinase p56lck).
Sequence of Tyrosine-protein kinase Lck (P06239 whole entry): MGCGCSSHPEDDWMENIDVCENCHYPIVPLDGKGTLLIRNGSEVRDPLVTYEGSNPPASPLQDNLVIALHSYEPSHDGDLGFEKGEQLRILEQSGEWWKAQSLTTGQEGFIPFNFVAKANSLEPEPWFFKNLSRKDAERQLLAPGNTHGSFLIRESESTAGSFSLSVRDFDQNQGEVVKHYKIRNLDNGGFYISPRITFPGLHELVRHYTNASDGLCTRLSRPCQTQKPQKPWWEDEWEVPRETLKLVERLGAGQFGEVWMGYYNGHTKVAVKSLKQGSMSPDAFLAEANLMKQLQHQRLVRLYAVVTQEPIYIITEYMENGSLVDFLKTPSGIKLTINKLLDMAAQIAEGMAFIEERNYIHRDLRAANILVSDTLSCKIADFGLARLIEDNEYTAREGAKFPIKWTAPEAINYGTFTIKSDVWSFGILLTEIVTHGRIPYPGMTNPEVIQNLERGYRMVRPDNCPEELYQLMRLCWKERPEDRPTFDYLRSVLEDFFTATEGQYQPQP

SMILES	IC50 [µM]
O=C(O)c1cc(-c2ccc3c(O)ccc(O)c3c2)ccc1O	65
O=C(O)c1cc(-c2ccc3ccccc3c2)ccc1O	> 200
O=C(O)c1cc(-c2ccc3cc(O)c(O)cc3c2)ccc1O	150
O=C(O)c1cc(-c2ccc3c(O)c(O)ccc3c2)ccc1O	42
